Structures can show the parent of a compound that is named as a salt. Where two headings read alike, the source gives them in different places.
Key:
5-HT2 receptors = target: T1, 5-HT2 receptors (Rattus norvegicus, UniProt P14842); experiment: Inhibition of ^3 H-Ketanserin Binding to 5-HT2 Receptors in Rat Cortex in vitro
T1 construct: 5-HT2 Receptors in Rat Cortex in vitro; from tissue; host or cells: rat cortex membranes
Protocol: Inhibition of ^3 H-Ketanserin Binding to 5-HT2 Receptors in Rat Cortex in vitro
By this method the inhibition by drugs of the binding of ^3 H-Ketanserin (0,5 nM) to 5-HT2 receptors in membranes from rat is determined in vitro. The method is described in Hyttel, Pharmacol. & Toxicol.

dopamine D2 receptors = dopamine D2 receptors (Rattus norvegicus, UniProt P61169); experiment: biochemical; format: binding
Protocol: Inhibition of ^3 H-Spiroperidol Binding to Dopamine D2 Receptors in Rat Corpus Striatum in vitro
By this method the inhibition by drugs of the binding of ^3 H-spiroperidol (0.5 nM) to dopamine D2 receptors in membranes from rat corpus striatum is determined in vitro.

[1] = ^3 H-Ketanserin 0,5 nM, rat cortex membranes, read-out: 5-HT2 binding ^3 H ketanserin, IC50
[2] = ^3 H-spiroperidol 0.5 nM, rat corpus striatum membranes, read-out: Dopamin D2 binding ^3 H spiroperidol, IC50
[3] = read-out: Dopamin D2 binding ^3 H spiroperidol, IC50

dopamine D2 receptors, sequence (P61169 whole entry): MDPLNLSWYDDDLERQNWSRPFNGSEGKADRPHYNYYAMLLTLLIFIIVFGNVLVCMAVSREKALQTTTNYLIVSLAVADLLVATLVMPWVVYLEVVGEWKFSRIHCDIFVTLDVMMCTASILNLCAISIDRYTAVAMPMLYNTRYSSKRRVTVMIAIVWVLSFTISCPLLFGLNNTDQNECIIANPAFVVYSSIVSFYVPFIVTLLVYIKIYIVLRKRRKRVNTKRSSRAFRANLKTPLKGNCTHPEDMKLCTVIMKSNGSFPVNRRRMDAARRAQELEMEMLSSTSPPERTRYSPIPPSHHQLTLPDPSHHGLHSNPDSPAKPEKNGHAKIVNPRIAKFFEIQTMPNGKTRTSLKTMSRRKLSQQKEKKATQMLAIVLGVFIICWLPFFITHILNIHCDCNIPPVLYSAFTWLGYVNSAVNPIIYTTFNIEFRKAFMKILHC
T1 sequence (P14842 whole entry): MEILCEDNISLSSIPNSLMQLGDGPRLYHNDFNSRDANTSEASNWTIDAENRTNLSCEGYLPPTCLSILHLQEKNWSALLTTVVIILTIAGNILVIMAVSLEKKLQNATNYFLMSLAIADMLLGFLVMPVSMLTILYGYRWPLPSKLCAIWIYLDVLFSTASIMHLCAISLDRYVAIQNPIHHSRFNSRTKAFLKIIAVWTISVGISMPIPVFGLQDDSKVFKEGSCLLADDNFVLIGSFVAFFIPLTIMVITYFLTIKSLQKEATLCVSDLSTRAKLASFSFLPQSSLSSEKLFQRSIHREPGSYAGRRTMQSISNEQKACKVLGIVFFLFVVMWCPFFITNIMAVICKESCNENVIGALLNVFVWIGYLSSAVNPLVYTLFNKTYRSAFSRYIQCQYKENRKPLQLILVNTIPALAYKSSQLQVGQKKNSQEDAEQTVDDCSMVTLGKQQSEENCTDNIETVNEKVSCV

Molecule	IC50 (5-HT2 receptors; [1])	IC50 (dopamine D2 receptors; [2])	IC50 (dopamine D2 receptors; [3])	other results
5-Chloro-1-(4-fluorophenyl)-3-[3-(4-piperidinyl)propyl]-1H-indole hydrochloride [Compound 3d]	0.11 µM	0.021 µM		
CN1CCCC1COc1cn(-c2ccc(F)cc2)c2ccc(Cl)cc12 (stereo in doubt) [Compound 7b, (S)-1-Methyl-2-pyrrolidinylmethoxy-5-chloro-1-(4-fluorophenyl)-1H-indole oxalate]		0.018 µM		IC50 (5-HT2 receptors; read-out: 5-HT2 binding ^3 H ketanserin, IC50, ^3 H-Ketanserin 0,5 nM, rat cortex membranes): 0.0082 µM
CN(C)CCCc1cn(-c2ccc(F)cc2)c2ccc(Cl)cc12 [Compound 3a, N,N-Dimethyl-3-[5-chloro-1-(4-fluorophenyl)-3-1H-indolyl]propylamine fumarate]	0.019 µM	0.042 µM		
CN(CCCc1cn(-c2ccc(F)cc2)c2ccc(Cl)cc12)CCN1CCNC1=O [Compound 3b, 1-[2-[[3-[5-chloro-1-(4-fluorophenyl)-3-1H-indolyl]propyl]methylamino]ethyl]-2-imidazolidinone fumarate]	0.0078 µM	0.19 µM		
Fc1ccc(-n2cc(CCCN3CCOCC3)c3cc(Cl)ccc32)cc1 [Compound 3c, 5-Chloro-1-(4-fluorophenyl)-3-[3-(4-morpholinyl)propyl]-1H-indole maleate]	0.31 µM	0.026 µM		
CN(C)CCOc1cn(-c2ccc(F)cc2)c2ccc(Cl)cc12 [Compound 4a, N,N-Dimethyl-2-[5-chloro-1-(4-fluorophenyl)-3-1H-indolyloxy]ethylamine sesqui fumarate]	0.0042 µM	0.0029 µM		
CN(CCOc1cn(-c2ccc(F)cc2)c2ccc(Cl)cc12)CCN1CCNC1=O [Compound 4b, 1-[2-[[2-[5-chloro-1-(4-fluorophenyl)-3-1H-indolyloxy]ethyl]methylamino]ethyl]-2-imidazolidinone Maleate]	0.00088 µM	0.0058 µM		
C#CCN(CCOc1cn(-c2ccc(F)cc2)c2ccc(Cl)cc12)CCN1CCNC1=O [Compound 4d, 1-[2-[[2-[5-Chloro-1-(4-fluorophenyl)-3-1H-indolyloxy]ethyl](3-propynyl)amino]ethyl]-2-imidazolidinone oxalate]	0.22 µM	0.19 µM		
Fc1ccc(-n2cc(OCCN3CCCCC3)c3cc(Cl)ccc32)cc1 [Compound 4e, 5-Chloro-1-(4-fluorophenyl)-3-[2-(1-piperidinyl)ethoxy]-1H-indole]	0.0059 µM	0.0023 µM		
Fc1ccc(-n2cc(OCCN3CCOCC3)c3cc(Cl)ccc32)cc1 [Compound 4f, 5-Chloro-1-(4-fluorophenyl)-3-[2-(4-morpholinyl)ethoxy]-1H-indole maleate]	0.048 µM	0.027 µM		
CN(CCOc1cn(-c2ccc(F)cc2)c2cc(Cl)ccc12)CCN1CCNC1=O [Compound 4h, 1-[2-[[2-[6-chloro-1-(4-fluorophenyl)-3-1H-indolyloxy]ethyl]methylamino]ethyl]-2-imidazolidinone]	0.002 µM	0.2 µM		
CC(C)N1CCN(CCN(C)CCOc2cn(-c3ccc(F)cc3)c3cc(Cl)ccc23)C1=O [Compound 4i, 1-[2-[[2-[6-Chloro-1-(4-fluorophenyl)-3-1H-indolyloxy]ethyl]methylamino]ethyl]-3-(2-propyl)-2-imidazolidinone oxalate]	0.0063 µM		0.12 µM	
CN(C)CCOc1cn(-c2ccc(F)cc2)c2cc(Cl)ccc12 [Compound 4j, N,N-Dimethyl-2-[6-chloro-1-(4-fluorophenyl)-3-1H-indolyloxy]ethylamine]	0.017 µM	0.063 µM		
O=C1NCCN1CCC1CCN(CCOc2cn(-c3ccc(F)cc3)c3ccc(Cl)cc23)CC1 [Compound 4k, 1-[2-[1-[2-[5-Chloro-1-(4-fluorophenyl)-3-1H-indolyloxy]ethyl]-4-piperidinyl]ethyl]-2-imidazolidinone]	0.021 µM	0.0026 µM		
CNC(=O)C1CCN(CCOc2cn(-c3ccc(F)cc3)c3ccc(Cl)cc23)CC1 [Compound 4n, N-methyl-1-[2-[5-chloro-1-(4-fluorophenyl)-3-1H-indolyloxy]ethyl]4-piperidinecarboxamide]	0.028 µM	0.0047 µM		
Fc1ccc(-n2cc(OCCN3CCCC3)c3ccc(Cl)cc32)cc1 [Compound 4o, 6-Chloro-1-(4-fluorophenyl)-2-(1-pyrrolidinyl)ethoxy-1H-indole]		0.023 µM		IC50 (5-HT2 receptors): 0.03 µM
Fc1ccc(-n2cc(OCCN3CCCCC3)c3ccc(Cl)cc32)cc1 [Compound 4p, 6-Chloro-1-(4-fluorophenyl)-2-(1-piperidinyl)ethoxy-1H-indole]		0.017 µM		IC50 (5-HT2 receptors): 0.035 µM
CN(C)CCSc1cn(-c2ccc(F)cc2)c2ccc(Cl)cc12 [Compound 4q, N,N-Dimethyl-2-[5-chloro-1-(4-fluorophenyl)-3-1H-indolylthio]ethylamine hydrochloride]	0.043 µM		0.14 µM	

Molecule	IC50 (5-HT2 receptors; [1])	IC50 (dopamine D2 receptors; [2])	IC50 (dopamine D2 receptors; [3])	other results
CN(CCSc1cn(-c2ccc(F)cc2)c2ccc(Cl)cc12)CCN1CCNC1=O [Compound 4r, 1-[2-[[2-[5-Chloro-1-(4-fluorophenyl)-3-1H-indolylthio]ethyl]methylamino]ethyl]-2-imidazolidinone]	0.086 µM			IC50 (dopamine D2 receptors): 0.77 µM
CN(CCN1CCNC1=O)Cc1cn(-c2ccc(F)cc2)c2ccc(Cl)cc12 [Compound 4s, 1-[2-[[5-chloro-1-(4-fluorophenyl)-3-1H-indolylmethyl]methylamino]ethyl]-2-imidazolidinone]	0.02 µM	0.022 µM		
CN(CCCN1CCNC1=O)CCc1cn(-c2ccc(F)cc2)c2ccc(Cl)cc12 [Compound 4u, 1-[3-[[2-[5-chloro-1-(4-fluorophenyl)-3-1H-indolyl]ethyl]methylamino]propyl]-2-imidazolidinone hydrochloride]	0.001 µM		0.019 µM	
CN(CCc1cn(-c2ccc(F)cc2)c2ccc(Cl)cc12)CCN1CCNC1=O [Compound 4v, 1-[2-[[2-[5-chloro-1-(4-fluorophenyl)-3-1H-indolyl]ethyl]methylamino]ethyl]-2-imidazolidinone maleate]	0.0053 µM	0.025 µM		
C[C@@H](COc1cn(-c2ccc(F)cc2)c2ccc(Cl)cc12)N(C)C [Compound 6a, (S)-N, N-Dimethyl-2-[5-chloro-1-(4-fluorophenyl) -3-1H-indolyloxy]-1-methylethylamine Oxalate]	0.0074 µM		0.0055 µM	
C[C@H](COc1cn(-c2ccc(F)cc2)c2ccc(Cl)cc12)N(C)C [Compound 6b, (R)-N,N-Dimethyl-2-[5-chloro-1-(4-fluorophenyl)-3-1H-indolyloxy]-1-methylethylamine oxalate]	0.021 µM		0.037 µM	
CN(C)C(C)(C)COc1cn(-c2ccc(F)cc2)c2ccc(Cl)cc12 [Compound 6c, N,N-Dimethyl-1,1-dimethyl-2-[5-chloro-1-(4-fluorophenyl)-3-1H-indolyloxy]ethylamine oxalate]	0.042 µM		0.33 µM	
CN1CCC[C@H]1COc1cn(-c2ccc(F)cc2)c2ccc(Cl)cc12 [Compound 7a, (S)-1-Methyl-2-pyrrolidinylmethoxy-5-chloro-1-(4-fluorophenyl)-1H-indole Oxalate]	0.018 µM	0.03 µM		
O=C1NCCN1CCN1CCC[C@@H]1COc1cn(-c2ccc(F)cc2)c2ccc(Cl)cc12 [Compound 8a, (R)-1-[2-[2-[5-Chloro-1-(4-fluorophenyl)-3-1H-indolyloxymethyl]-1-pyrrolidinyl]ethyl]-2-imidazolidinone Oxalate]	0.049 µM		0.0081 µM	
C[C@@H](CN(C)CCOc1cn(-c2ccc(F)cc2)c2ccc(Cl)cc12)N1CCNC1=O [Compound 8b, (S)-1-[1-methyl-2-[[2-[5-chloro-1-(4-fluorophenyl)-3-1H-indolyloxy]ethyl]methylamino]ethyl]-2-imidazolidinone oxalate]	0.22 µM		0.035 µM	
CN(C)CCOc1c(CO)n(-c2ccc(F)cc2)c2ccc(Cl)cc12 [Compound 9a, N,N-Dimethyl-2-[5-chloro-1-(4-fluorophenyl)-2-hydroxymethyl-3-1H-indolyloxy]ethylamine Hydrochloride]			0.43 µM	IC50 (5-HT2 receptors): 0.038 µM
Cc1c(OCCN(C)C)c2cc(Cl)ccc2n1-c1ccc(F)cc1 [Compound 10, N,N-Dimethyl-2-[5-chloro-1-(4-fluorophenyl)-2-methyl-3-1H-indolyloxy]ethylamine Oxalate]	0.011 µM		0.083 µM	
CN(C)Cc1cn(-c2ccc(F)cc2)c2ccc(Cl)cc12 [Compound 13a, N,N-Dimethyl-[5-chloro-1-(4-fluorophenyl)-3-1H-indolyl]methylamine Maleate]	0.012 µM	0.019 µM		
CNCc1cn(-c2ccc(F)cc2)c2ccc(Cl)cc12 [Compound 13b, N-methyl-[5-chloro-1-(4-fluorophenyl)-3-1H-indolylmethyl]amine hydrochloride]	0.021 µM		0.033 µM	
CN(C)CCc1cn(-c2ccc(F)cc2)c2ccc(Cl)cc12 [Compound 14b, N,N-Dimethyl-2-(5-chloro-1-(4-fluorophenyl)-3-1H-indolyl)ethylamine maleate]	0.0089 µM		0.038 µM	
Fc1ccc(-n2cc(CCN3CCOCC3)c3cc(Cl)ccc32)cc1 [Compound 14c, 5-chloro-1-(4-fluorophenyl)-3-(2-(4-morpholinyl)ethyl)-1H-indole fumarate]	0.022 µM			IC50 (dopamine D2 receptors): 0.054 µM
CNCCc1cn(-c2ccc(F)cc2)c2ccc(Cl)cc12 [Compound 15a, N-methyl-2-(5-chloro-1-(4-fluorophenyl)-3-1H-indolyl)ethylamine Maleate]	0.017 µM			IC50 (dopamine D2 receptors): 0.024 µM

Reference: patent publication US5789404A, “3-substituted 1-arylindole compounds” (H. Lundbeck A/S, priority 1993, dated 1998)
